# pIC50: −log10 of the molar value.
# Key:
# [1] = system: Staphylococcus aureus growth; test: Staphylococcus aureus growth curve; type: cell-based, Staphylococcus aureus ATCC 6538
# Procedure: 2 mL of each treatment was added to 19 culture tubes and the samples were incubated for 24 h at 37° C. with shaking at 200 rpm. 1 mL of each sample was transferred to a cuvette and the absorbance measurements at 600 nm were taken every hour for 9 hours. 24 h measurements were taken the following day. Untreated samples and samples containing 1.6 μg/mL vancomycin served as a negative and positive controls, respectively. Growth rates were calculated using the slope of the log phase of growth (t=0 h and t=4 h).
# [2] = system: Staphylococcus aureus biofilm formation; test: microbe, parasite or virus in culture; settings: for pIC50 / CC50: Staphylococcus aureus; for pIC50: 24 h, read-out: BP50; for CC50: read-out: category based on BP50 and LC50; for anti-biofilm activity (words): pure compounds; for effect on biofilm formation: evaluated at 0.8% and 3%
# Procedure: Staphylococcus aureus and Streptococcus mutans biofilms were grown in Luria-Bertani (LB) broth and brain-heart infusion (BHI) medium containing 0.5% sucrose, respectively. Biofilm formation was assessed using a polystyrene 96 well microtiter plate crystal violet assay. Overnight broth cultures were diluted to an initial optical density (OD600) of 0.01 in fresh media and combined with gesho extract to obtain a final concentration of 7 mg/ml. Treatments were then serially diluted to final extract concentrations of 5, 3, 1, 0.5 and 0.25 mg/ml. Negative controls consisted of cells diluted to an initial optical density (OD600) of 0.01 in growth media without plant extract. 100 μl of treated and untreated samples were added to each well of a microtiter plate and incubated at 37° C. for 24 hours. After 24 hours, planktonic cells and spent growth media were removed from each well and the plate was washed three times in sterile water. Biofilms were then stained with 150 μl of 0.1% crystal violet for 15 minutes at 200 rpm. Excess dye was removed via washing in sterile water and the plate was allowed to air dry.
# Staphylococcus aureus and Pseudomonas aeruginosa biofilms were grown in LB broth and PBM-glucose, respectively. Biofilm formation was assessed using a polystyrene 96 well microtiter plate crystal violet assay. […] DMSO was added to solubilize the treatments. Negative controls consisted of cells diluted to an initial OD600 of 0.01 in growth media without treatment. 100 μl of treated and untreated samples were added to each well of a microtiter plate and incubated at 37° C. for 24 h. After 24 h, planktonic cells and spent growth media were removed from each well and the plate was washed 3 times in sterile water. Biofilms were then stained with 150 μl of 0.1% crystal violet for 15 min at 200 rpm. Excess dye was removed via washing in sterile water and the plate was allowed to air dry.
# Biofilm formation was assessed using a polystyrene 96 well microtiter plate crystal violet assay.^23 Overnight broth cultures were diluted to an initial OD600 of 0.01 in fresh LB and combined with a target compound to obtain a final concentration of 7 mg/ml. Treatments were then serially diluted to final extract concentrations of 5, 3, 1, 0.5 and 0.25 mg/ml. No vehicles were added to solubilize the treatments. Untreated cells served as negative controls. 100 μl of treated and untreated samples were added to each well of a microtiter plate and incubated at 37° C. for 24 h. After 24 h, planktonic cells and spent growth media were removed from each well and the plate was washed 3 times in sterile water. Biofilms were then stained with 150 μl of 0.1% crystal violet for 15 min at 200 rpm. Excess dye was removed via washing in sterile water and the plate was allowed to air dry. […] The molarity of each treatment was calculated using excel.
# [3] = system: Staphylococcus aureus biofilms; test: Staphylococcus aureus biofilm killing assay (resazurin); type: cell-based, Staphylococcus aureus ATCC 6538; settings: combination with vancomycin at its MBEC
# Procedure: Staphylococcus aureus biofilms were formed as described above. Staphylococcus aureus biofilms were grown in LB broth. […] […]. Negative controls consisted of 100 μL of fresh LB without compound or antibiotic. […] 100 μL of 10 μg/mL resazurin in LB was added to each biofilm and the plate was statically incubated at 37° C. for 3 hrs. During incubation, fluorescence intensity was measured at λex=570 nm λem=590 nm every 6 minutes using an Enspire fluorescence plate reader. Data was normalized to the emission at t=0 and the rates of resazurin conversion to resorufin was calculated to identify the time at which maximum fluorescence was achieved.
# [4] = system: Staphylococcus aureus hydrophobicity; test: Hydrophobicity test (microbial adherence to hydrocarbon); type: cell-based; settings: 0.2 or 0.4 mg/mL, 24 h
# Procedure: Hydrophobicity analysis was conducted according to Ciccio, et al., 2015 with a few modifications. Three milliliters of Staphylococcus aureus cultures were grown in the presence of 4-ethoxybenzoic acid (0.2 or 0.4 mg/mL) or methyl gallate (0.2 or 0.4 mg/mL) for 24 h at 37° C. with shaking at 200 rpm. Cultures were diluted to an OD600 of 0.6 and washed with 1 mL PBS. 5 mL of the inoculum was produced, 1 mL was removed for plating on growth agar and 1 mL of hexadecane was applied to the air-liquid interface or the remaining 4 mL. Hexadecane samples were vortexed for 1 min and the phases allowed to separate for 15 minutes at room temperature. 1 mL of the aqueous layer was removed and plated on growth agar. Agar plates were incubated at 37° C. overnight and plate counts were conducted the following day. Results were interpreted as the percent of cells present in the aqueous layer prior to (A0) and after (A1) the addition of hexadecane [(A0−A1)/A0]*100.
# [5] = system: Staphylococcus aureus stationary phase planktonic cells; settings: pure compounds, with or without 1% DMSO
# Procedure: To assess the viability of stationary phase planktonic cell, a growth agar based assay was conducted. Spent media containing stationary phase planktonic cells was collected after a biofilm formation assay. Collected cells were serially diluted in PBS and dilutions were radially plated in 10 μl volumes on growth medium. Agar plates were incubated at 37° C. overnight to allow for colony formation. Plate counts were used to assess viability.
# To assess the viability of stationary phase planktonic cells, a growth agar-based assay was conducted. Spent media containing stationary phase planktonic cells were collected from microtiter plates after the conclusion of each biofilm formation assay. The collected cells were serially diluted (1:10) in PBS and dilutions were radially plated in 10 μl volumes on growth medium. Agar plates were incubated at 37° C. overnight to allow for colony formation and plate counts were used to assess viability. Colony forming units per milliliter of culture (CFU/mL) was calculated by dividing the colony counts (C) by the volume added (V) multiplied by the dilution factor (D): […]
# [6] = system: Staphylococcus aureus log-phase planktonic cells; test: Log-phase cell antimicrobial assay; type: cell-based, Staphylococcus aureus ATCC 6538; settings: pure compounds, with or without 1% DMSO
# Procedure: Bacteria were inoculated in 20 ml of growth media at an initial optical density (OD600) of 0.01 and incubated at 37° C., 200 rpm until log-phase was reached. One milliliter of log-phase cells was transferred to 1.5 ml microfuge tubes and growth media removed via centrifugation. Pelleted cells were washed twice with phosphate buffered saline (PBS) before resuspending the pellets in 1 ml of extract dissolved in PBS. Treatments were incubated at 37° C. for 1 hour then serially diluted in PBS and radially plated on growth agar.
# Bacteria were inoculated in 20 ml of growth media at an initial optical density (OD600) of 0.01 and incubated for 4±1 h at 37° C. with shaking at 200 rpm until log phase (OD600≈0.35) was reached. 1 ml of log-phase cells was transferred to 1.5 ml microfuge tubes and the growth medium was removed via centrifugation. Pelleted cells were washed twice with phosphate buffered saline (PBS) before resuspending the pellets in 1 ml of 4-ethoxybenzoic acid or methyl gallate with or without vancomycin dissolved in PBS. Treatments were incubated at 37° C. for 1 h and then serially diluted in PBS and radially plated on growth agar.
# biofilm = test: Screen of other compounds for anti-biofilm effect; type: cell-based
smiles,measurement,setting,value
CCOc1ccc(C(=O)O)cc1 [4-ethoxybenzoic acid],Percent attenuation,[1]; 1.2 mM,12%
same,Growth rate,"[1]; 1.2 mM, t=0 to t=4 h",0.97 log replications/hr
same,Percent attenuation,[1]; 2.4 mM,47%
same,Growth rate,"[1]; 2.4 mM, t=0 to t=4 h",0.58 log replications/hr
same,pIC50,[2],2.80
same,CC50,[2],< 7.5 mM
same,synergism with vancomycin in biofilm killing,[3],synergistic effects
same,hydrophobicity of S. aureus,[4],decreased the hydrophobicity
O=C(O)c1cccc(O)c1 [3-hydroxybenzoic acid],pIC50,[2],2.02
same,CC50,[2],< 15 mM
COC(=O)c1cc(O)c(O)c(O)c1 [methyl gallate],Percent attenuation,[1]; 1.1 mM,30%
same,Growth rate,"[1]; 1.1 mM, t=0 to t=4 h",0.77 log replications/hr
same,Percent attenuation,[1]; 1.2 mM,46%
same,Growth rate,"[1]; 1.2 mM, t=0 to t=4 h",0.59 log replications/hr
same,pIC50,[2],3.09
same,CC50,[2],< 7.5 mM
same,synergism with vancomycin in biofilm killing,[3],did not exhibit synergism
same,hydrophobicity of S. aureus,[4],decreased the hydrophobicity
"CCOC(=O)c1ccc(OCC)cc1 [EEB, ethyl 4-ethoxybenzoate]",antibacterial activity against stationary phase cells,[5],did not show antibacterial activity
same,CC50,[2],> 7.5 mM
same,effect of DMSO on anti-biofilm activity,[2]; combined with 1% DMSO,presence of DMSO increased the anti-biofilm activity of EEB
same,anti-biofilm activity (words),[2],significant anti-biofilm activity
same,anti-biofilm activity (words),[2]; listed as ethyl 4-ethoxybenzoate,anti-biofilm activity
same,antibacterial activity against log phase cells,[6],did not show antibacterial activity
CCCCCCCCC(C)O (stereo not shown) [2-decanol],anti-biofilm effect,biofilm,anti-biofilm effect
"CCCC(C)=O [2-pentanone, reference compound]",effect on biofilm formation,[2],Neither benzoic acid nor 2-pentanone had a statistically significant effect on biofilm formation
"O=C(O)c1ccc(O)cc1 [p-hydroxybenzoic acid, 4-hydroxybenzoic acid]",pIC50,[2],2.10
same,CC50,[2],< 15 mM
"COC(=O)c1ccc(O)cc1 [methyl paraben, 4-hydroxybenzoic acid methyl ester]",Percent attenuation,[1]; 5.2 mM,25%
same,Growth rate,"[1]; 5.2 mM, t=0 to t=4 h",0.83 log replications/hr
O=C(O)c1cc(O)c(O)c(O)c1 [gallic acid],pIC50,[2],1.76
same,CC50,[2],> 7.5 mM
"O=C(O)c1ccccc1O [salicylic acid, 2-hydroxybenzoic acid]",pIC50,[2],1.41
same,CC50,[2],> 7.5 mM
"O=C(O)c1cccc(O)c1O [pyrocatechuic acid, 2,3-dihydroxybenzoic acid]",pIC50,[2],2.32
same,CC50,[2],< 15 mM
CCCOC(=O)c1cc(O)c(O)c(O)c1 [propyl gallate],pIC50,[2],2.54
same,CC50,[2],< 15 mM
"CN[C@H](CC(C)C)C(=O)N[C@H]1C(=O)N[C@@H](CC(N)=O)C(=O)N[C@H]2C(=O)N[C@H]3C(=O)N[C@H](C(=O)N[C@H](C(=O)O)c4cc(O)cc(O)c4-c4cc3ccc4O)[C@H](O)c3ccc(c(Cl)c3)Oc3cc2cc(c3O[C@@H]2O[C@H](CO)[C@@H](O)[C@H](O)[C@H]2O[C@H]2C[C@](C)(N)[C@H](O)[C@H](C)O2)Oc2ccc(cc2Cl)[C@H]1O [vancomycin, reference compound]",Growth rate,"[1]; 1.1 μM, positive control",0.0 log replications/hr
same,Percent attenuation,"[1]; 1.1 μM, positive control",100%
CCOC(=O)c1cc(O)c(O)c(O)c1 [ethyl gallate],pIC50,[2],2.17
same,CC50,[2],< 15 mM
"O=C(O)c1ccc(O)c(O)c1 [protocatechuic acid, 3,4-dihydroxybenzoic acid]",pIC50,[2],1.84
same,CC50,[2],< 15 mM
"O=C(O)c1ccccc1 [benzoic acid, reference compound]",effect on biofilm formation,[2],Neither benzoic acid nor 2-pentanone had a statistically significant effect on biofilm formation
"O=C(O)c1cc(O)ccc1O [gentisic acid, 2,5-dihydroxybenzoic acid]",pIC50,[2],2.04
